Data from patent US20050065218A1, “Utilization of alverine, alone or in combination with tricyclic antidepressant or a specific serotonin reuptake inhibitor for the treatment of depression” (priority 2003, published 2005).
Several values for one entry are separate records, joined by “and”; a condition that tells them apart may be missing. Equal entries are not always repeated. Entries after “also recorded” stand apart in the source; their conditions may differ. Structures can show the parent of a compound that is named as a salt.

Legend:
Type in all cases: in vivo
Swiss mice CD1 [1] = assay: forced swim test, Alverine administered orally to mice (Example 2); design: key to Dunnett test vs control group: * indicates a significant difference for p < 0.05 (Dunnett test); ns indicates an insignificant result; details: for immobility time, individual animals / immobility time, Mean: 60 minutes prior to the test; for immobility time, Mean: N = 10
Swiss mice CD1 [2] = assay: observation of secondary effects in mice treated orally (Example 2); details: treated orally, 10, 30, 100 mg/kg
Swiss mice CD1 [3] = assay: forced swim test, Alverine administered intraperitoneally to mice (Example 1); design: key to Dunnett test vs control group: * indicates a significant difference for p < 0.05 (Dunnett test); ns indicates an insignificant result; details: for immobility time, individual animals / immobility time, Mean: 30 minutes prior to the test; for immobility time, Mean: N = 10
Experimental: To establish the advantages according to the present invention a study was carried out to 50 mice. They were divided into 5 groups of 10 mice each. These are Swiss mice CD1 (CD-1® (ICR) IGS (Charles River France) weighing between 25 and 35 g.
They were placed in a room at a temperature of between 19.5 and 24.5° C. and a relative humidity of 45 to 65% with a light/dark cycle of 12 h, ad libitum access to filtered water and pellets of laboratory-standard food.
They are placed 15 to 20 per cage, over an acclimatising period of at least 5 days prior to the tests. They are identified by marking on the fur.
The substance to be tested is Alverine citrate (Sigma, in the form of dry powder, with a salt/base ratio of 1.68) comparatively to imipramine chlorhydrate (Sigma, in the form of dry powder, with a salt/base ratio of 1.13).
The first group is the control group: it is treated only by excipient.
The second group is treated with Alverine at a dose of 3 mg/kg
The third group is treated with Alverine at a dose of 10 mg/kg
The fourth group is treated with Alverine at a dose of 30 mg/kg
The fifth group is treated with imipramine (tricyclic antidepressant) at a dose of 10 mg/kg
The doses are expressed in terms of free active substances. The substances are prepared extemporaneously in the excipient. The treatments are administered 30 minutes prior to the test in a coded and random order intraperitoneally with a volume of 10 ml/kg.
Thirty minutes following administration the five groups of mice are subjected to the forced swim test, in a vertical Plexiglas cylinder (height 24 cm, diameter 9 cm) containing water (height 6 cm, temperature 18-22° C.). The total duration of immobility is measured over the last four minutes of the test, six minutes in total. A mouse is deemed immobile when it ceases struggling and floats in the water without movements superfluous to those allowing it to keep its head above water. A drop in immobility time is the reflection of an antidepressant effect.
The forced swim test is a pre-clinical behavioural model, which has good predictive validity and is widely employed for determining the efficacy of antidepressant medications (Borsini and Meli, 1988).
The results are expressed in total duration of immobility in seconds and as a percentage of variation of the total duration of immobility calculated from the average value of the control group.
The statistical significance between the treated groups and the control group is determined by a Dunnett test using the residual variation according to analysis of the variance (P<0.05). The data are analysed using <<SigmaStat>> software.

Swiss mice CD1 [4] = assay: forced swim test, Alverine and imipramine administered intraperitoneally to mice (Example 3, first test); design: key to Dunnett test vs control group: * indicates a significant difference for p < 0.05 (Dunnett test); ns indicates an insignificant result; details: for immobility time, individual animals / immobility time, Mean: 30 minutes prior to the test; for immobility time, Mean: n = 10
Experimental: These are Swiss mice CD1 (CD-1® (ICR) IGS (Charles River France) weighing between 25 and 35 g. […] They are placed 15 to 20 per cage, over an acclimatising period of at least 5 days prior to the tests. They are identified by marking on the fur. […] The mice were divided into two test comprising six groups of 10 mice each. For the first test: The first group is the control group: it is treated only by excipient. The second group is treated with imipramine at a dose of 3 mg/kg The third group is treated with Alverine at a dose of 3 mg/kg The fourth group is treated with Alverine at a dose of 3 mg/kg and imipramine at a dose of 3 mg/kg The fifth group is treated with imipramine at a dose of 10 mg/kg […] The doses are expressed in terms of free active substances. The test substances are prepared extemporaneously in a saline solution. The treatments are co-administered 30 minutes prior to the test in a coded and random order intraperitoneally with a volume of 10 ml/kg (5 ml/kg for each administration). Thirty minutes following administration the six groups of mice are subjected to the forced swim test, in a vertical Plexiglas cylinder (height 24 cm, diameter 9 cm) containing water (height 6 cm, temperature 18-22° C.). The total duration of immobility is measured over the last four minutes of the test, six minutes in total. A mouse is deemed immobile when it ceases struggling and floats in the water without movements superfluous to those allowing it to keep its head above water. A drop in immobility time is the reflection of an antidepressant effect. The forced swim test is a pre-clinical behavioural model, which has good predictive validity and is widely employed for determining the efficacy of antidepressant medications (Borsini and Meli, 1988). The results are expressed in total duration of immobility in seconds and as a percentage of variation of the total duration of immobility calculated from the average value of the control group. The statistical significance between two treated groups is determined by using a Student test (P<0.05) The data are analysed using <<SigmaStat>> software.

[5] = Alverine citrate 10 mg/kg orally
[6] = Alverine citrate 30 mg/kg orally
[7] = Alverine citrate 100 mg/kg orally
[8] = Alverine citrate 3 mg/kg intraperitoneally
[9] = Alverine citrate 10 mg/kg intraperitoneally
[10] = Alverine citrate 30 mg/kg intraperitoneally
[11] = Alverine 3 mg/kg intraperitoneally
[12] = Alverine 10 mg/kg intraperitoneally

secondary effect (Swiss mice CD1 [2]): no secondary effect was observed
Structure (SMILES): CCN(CCCc1ccccc1)CCCc1ccccc1 [Alverine citrate, N-ethyl-3,3′-diphenyldipropylamine]
% of variation of immobility time vs control group (Swiss mice CD1 [1]; [5]): −30%
Dunnett test vs control group (Swiss mice CD1 [1]; [5]): ns
immobility time, individual animals (Swiss mice CD1 [1]; [5]): 86 s and 95 s and 104 s and 111 s and 126 s and 108 s and 78 s and 115 s and 106 s and 113 s
immobility time, Mean (Swiss mice CD1 [1]; [5]): 104.2 s
% of variation of immobility time vs control group (Swiss mice CD1 [1]; [6]): −43%
Dunnett test vs control group (Swiss mice CD1 [1]; [6]): * (* indicates a significant difference for p < 0.05 (Dunnett test))
immobility time, individual animals (Swiss mice CD1 [1]; [6]): 104 sec and 80 sec and 64 sec and 70 sec and 105 sec (3×) and 41 sec and 63 sec and 113 sec
immobility time, Mean (Swiss mice CD1 [1]; [6]): 85.0 s
% of variation of immobility time vs control group (Swiss mice CD1 [1]; [7]): −60%
Dunnett test vs control group (Swiss mice CD1 [1]; [7]): * (* indicates a significant difference for p < 0.05 (Dunnett test))
immobility time, individual animals (Swiss mice CD1 [1]; [7]): 52 s and 129 s and 67 s and 6 s and 105 s and 75 s and 81 s and 5 s and 37 s and 32 s
immobility time, Mean (Swiss mice CD1 [1]; [7]): 58.9 s
antidepressant effect (in words) (Swiss mice CD1 [1]; administered orally, 10 to 100 mg/kg): antidepressant effect related to the dose; also recorded: significant antidepressant effect in mice
immobility time compared with mice treated at 10 mg/kg of imipramine (Swiss mice CD1 [3]; 10 mg/kg intraperitoneally): comparable
% of variation of immobility time vs control group (Swiss mice CD1 [3]; [8]): −15%
Dunnett test vs control group (Swiss mice CD1 [3]; [8]): ns
immobility time, individual animals (Swiss mice CD1 [3]; [8]): 128 s and 82 s and 151 s and 132 s and 127 s and 88 s and 85 s and 99 s and 93 s and 118 s
immobility time, Mean (Swiss mice CD1 [3]; [8]): 110.3 s
% of variation of immobility time vs control group (Swiss mice CD1 [3]; [9]): −53%
Dunnett test vs control group (Swiss mice CD1 [3]; [9]): * (* indicates a significant difference for p < 0.05 (Dunnett test))
immobility time, individual animals (Swiss mice CD1 [3]; [9]): 29 s and 86 s and 28 s and 30 s and 90 s and 99 s and 65 s and 129 s and 57 s and 3 s
immobility time, Mean (Swiss mice CD1 [3]; [9]): 61.6 s
% of variation of immobility time vs control group (Swiss mice CD1 [3]; [10]): −80%
Dunnett test vs control group (Swiss mice CD1 [3]; [10]): * (* indicates a significant difference for p < 0.05 (Dunnett test))
immobility time, individual animals (Swiss mice CD1 [3]; [10]): 97 sec and 3 sec and 66 sec and 36 sec and 0 sec and 15 sec and 7 sec (2×) and 16 sec and 12 sec
immobility time, Mean (Swiss mice CD1 [3]; [10]): 25.9 s
antidepressant effect (in words) (Swiss mice CD1 [3]; injected intraperitoneally, 3 to 30 mg/kg): antidepressant effect related to the dose; also recorded: significant antidepressant effect in mice and equal to that of Imipramine, at comparable doses
% of variation of immobility time vs control group (Swiss mice CD1 [4]; [11]): −30%
Dunnett test vs control group (Swiss mice CD1 [4]; [11]): ns
immobility time, individual animals (Swiss mice CD1 [4]; [11]): 108 s and 134 s and 113 s and 65 s and 85 s and 73 s and 79 s and 125 s and 95 s and 140 s
immobility time, Mean (Swiss mice CD1 [4]; [11]): 101.7 s
% of variation of immobility time vs control group (Swiss mice CD1 [4]; [12]): −70%
Dunnett test vs control group (Swiss mice CD1 [4]; [12]): * (* indicates a significant difference for p < 0.05 (Dunnett test))
immobility time, individual animals (Swiss mice CD1 [4]; [12]): 28 s and 10 s and 1 s and 74 s and 22 s and 70 s and 69 s and 67 s and 42 s and 57 s
immobility time, Mean (Swiss mice CD1 [4]; [12]): 44.0 s
decrease in the duration of immobilisation as compared to the control group (in words) (Swiss mice CD1 [4]; tested alone at 3 mg/kg intraperitoneally): statistically insignificant decrease
